Here are results for 9 molecules from patent US9849174B2, “Methods and compositions related to immunogenic fibrils” (The Board of Regents of the University of Texas System, priority 2009, dated 2017).

Entries after “also recorded” stand apart in the source; their conditions may differ. Square brackets hold non-standard residues; d marks the D form. Ends that are not written are not given here.

Data set [1] has as its system KO mice lacking both the αβ and γδ receptors. The data set is described as follows: Immunization of T cell receptor KO mice, antibody production. Type of data set: in vivo. The settings on record: over 6 wks. From the text: To confirm the necessity of T cells, KO mice lacking both the αβ and γδ receptors for CD4^+ T cells were immunized with OVA-Q11 along with wild type controls. […] The wild type control mice responded as expected. […] To ensure that the KO mice are capable of eliciting immune responses, they were immunized with a T-independent antigen, NP-Ficoll. […] This finding might not be surprising because OVA is a strong MHC class II peptide, containing both B and T cell determinants.

For data set [2], the system named is C57BL/6 mice. The data set is described as follows: Long-term serum antibody ELISA after immunization with Q11-linked peptides (Example 2). The settings on record: boost at wk 4. A general note: In an ELISA, binding on a coated surface is turned into a signal by an enzyme label.
Experimental: The dose dependence and longevity of the antibody response to OVA-Q11 was further investigated and antibody responses against the malarial peptide epitope (NANP)3 coupled to Q11 were also characterized. Mice were immunized with two different doses of OVA-Q11 (100 nmol and 50 nmol), or 100 nmol of (NANP)3-Q11 and boosted with half the dose at wk 4. Mice were bled on a weekly basis up to wk 6, once at wk 8, and once every four weeks thereafter.
Animals and Immunizations Peptides were dissolved in sterile water (8 mM stock), incubated overnight at 4° C., and diluted in sterile PBS (2 mM working concentration) prior to immunizations. For the malaria peptide, (NANP)3-Q11, the formulations were incubated in PBS overnight to ensure complete fibril formation. […] Female C57BL/6 mice (6-8 weeks old, Taconic Farms, IN) were immunized subcutaneously with two 50 μL injections in the back, with each injection containing 100 nmol of peptide. […]
Determination of Antibody Production ELISA plates (eBioscience) were coated with 20 μg/mL of peptide or 0.5 μg/mL of whole protein in PBS overnight at 4° C. […] The reaction was stopped using 50 μL of 1 M phosphoric acid and 100 μL of the solution was transferred to fresh plates and absorbance values were read at 450 nm. Absorbance values of PBS (no antigen) coated wells were subtracted to account for background. […]
The test system of data set [3] is antigen-specific T cells in the draining lymph nodes. Put plainly: CD8 T cell responses after footpad immunization, tetramer staining of draining lymph nodes. It counts as in vivo, mice.
Data set [4] relates to C57BL/6 mice. Put plainly: Subcutaneous immunization with OVA-KFE8 enantiomers, antibody responses by ELISA (Example 4). Type of data set: in vivo. The note with it: for Dominant antibody isotype: plates coated with free OVA peptide; for Total IgG antibody response: s.c., boost day 28.
Data set [5] concerns OT-II cells. Put plainly: In vitro activation assay of OT-II lymphocytes on nanofiber-coated wells, cytokines by flow cytometry. It counts as cell-based, mice. The note with it: 6 h stimulation; for Cytokine (IFN-γ, IL-2) production by OT-II cells: nanofibers without OVA. The source says:
OVA-KFE8D Nanofibers Induce Robust CD4 T Helper Cell Responses. OVA (ISQAVHAAHAEINEAGR) (SEQ ID NO: 26), is a well-characterized CD4+ T helper epitope, a portion of which is also recognized by B cells (ISQAVHAAHA) (SEQ ID NO: 58) (Robertson, et al., 2000). Therefore, immunization with OVA leads to both CD4+ T cell activation and antibody production and studies have shown that antibody responses against OVA are CD4+ T celldependent (Rudra, et al., 2012; Robertson, et al., 2000). To assess whether the enantiomeric nature of nanofibers that contributed to enhanced antibody responses also leads to differential CD4+ T helper cell functionality, we utilized transgenic mice (OT-II mice) that have CD4+ T cells (OT-II cells) whose receptors recognize OVA in the context of MHC-class II molecules.30 CD4+ T cell responses were assessed using an in vitro activation assay. Whole lymphocyte extracts (containing antigen-presenting cell, B cell, and CD4+ T cell populations) from OT-II mice were cultured in wells coated with OVA-bearing enantiomers, and 6 h later the production of cytokines IFN-γ and IL-2 were measured using flow cytometry. Lymphocytes stimulated with PBS or free OVA peptide were used as negative and positive controls, respectively.

Data set [6] relates to CFSE-labeled OT-II cells. Put plainly: Footpad adoptive transfer of CFSE-labeled OT-II cells one week after immunization. The note with it: cells transferred a week after footpad immunization, lymph nodes 24 h later. It counts as in vivo, mice. From the text:
OVA-KFE8D Nanofibers Prolong Antigen Presentation at the Immunization Site. Previous studies from our lab have shown that peptide nanofiber vaccines (all L-amino acids) are cleared from the immunization site as early as 10 days after vaccination compared to depot forming adjuvants (Chesson, et al., 2014). To investigate whether the reduced proteolytic susceptibility of D-amino acid peptides prolongs antigen-presentation at the immunization site, we used adoptive transfer experiments where mice were injected at the immunization site with CFSElabeled OT-II cells (OVA-specific CD4+ T cells) and measured proliferation of the OT-II cells (in response to existing antigen) via the dilution of the CFSE label using flow cytometry. For these studies, immunizations and adoptive transfers were done in the footpads to maximize antigen depot-OT-II CD4+ T cell interaction and easy collection of draining lymph nodes. Mice were immunized with OVA-KFE8L or OVA-KFE8D nanofibers and a week later CFSE-labeled OT-II cells were transferred at the vaccination site. Twenty-four hours later, mice were sacrificed and draining lymph nodes were extracted.

For data set [7] the following is noted: ranges: high and low values among three batches for each peptide.
Experimental: Endotoxin levels of all formulations were tested using a Limulus Amebocyte Lystae (LAL) chromogenic end point assay (Lonza, USA).
To account for batch-to-batch variability three different sets of peptides were synthesized for immunizing mice.
On the set-up of data set [8]: species or system mice. The note with it: mouse, in vivo. The source says:
Peptide assemblies (stained brown and indicated by arrows) were found at the cortex of the lymph nodes by wk 1 and continued to persist up to wk 6. […] Although the mechanism of trafficking is unknown, co-staining for macrophages, dendritic cells, or B cells might provide further insights into the uptake and processing of these peptides in vivo.
Immunohistochemistry Freshly dissected skeletal muscle and inguinal lymph nodes were fixed overnight with 4% formaldehyde in phosphate-buffered saline (pH 7.2) and the tissue was processed and embedded in paraffin at the Human Tissue Resource Center (University of Chicago). The paraffin blocks were cut on a microtome (Leica, USA) into 4 μm thick sections and were deparaffinized with xylene and rehydrated with gradient ethanol. The sections were boiled in 10 mM sodium citrate solution (pH 6.0) for 10 min to retrieve the antigens and blocked with 5% BSA in PBS for 1 hr. The sections were then incubated with Horseradish Peroxidase Avidin D (Vector Laboratories, CA) for 3 hrs, and the biotin was visualized using a peroxidase substrate diaminobenzidine kit (Vector Laboratories, CA). The sections were also counterstained with Mayer's hematoxylin solution (Sigma-Aldrich, USA) for 10 mins. The slides were dehydrated with gradient ethanol and xylene and mounted with Permount Mounting Medium (Fisher Scientific, PA). Images were acquired using a Zeiss Axioskop at the Microscopy Core Facility (University of Chicago).

Data set [9] has as its system C57BL/6 mice. The data set is described as follows: Subcutaneous immunization of mice, serum antibody titers and isotypes by ELISA (Example 1). It counts as in vivo. The protocol:
To investigate how fibrillization affected the immunogenicity of OVA, C57BL/6 mice were immunized subcutaneously with the different peptides and boosted with additional peptide at 28 days (see methods). Serum was collected seven days after the boost, and levels of various immunoglobulins were measured.
Immunizations. […] Stock solutions were then diluted in sterile, endotoxin-free PBS to working concentrations. […] CFA-adjuvanted groups received the same volume and total peptide dose, prepared by emulsifying peptide/PBS solutions 1:1 in CFA. […] CFA groups were boosted in incomplete Freund's adjuvant (IFA). Mice receiving mixtures of Q11 and OVA received 100 nmol of each peptide in the first injection and 50 nmol of each in the second. Seven days after the boost, the mice were sacrificed, and sera and spleens were harvested.
Determination of antibody titers. High-binding ELISA plates (eBioscience) were coated with either 20 μg/mL peptide in PBS or PBS alone (for uncoated background subtraction) overnight at 4° C. […] To determine titers for each antiserum, background absorbance values from uncoated wells were subtracted from coated wells, and net absorbances were compared to cutoff values. The cutoff consisted of the mean plus three times the standard deviation of the negative control group (mice receiving OVA without adjuvant) for each corresponding dilution. Any sample dilutions having absorbances above this cutoff value were considered positive readings. The titer was considered as the highest dilution for which it and all lower dilutions had positive readings. If no positive dilutions were present the titer was considered to be 10^2. […] Antibody isotypes were analyzed similarly using a mouse monoclonal antibody kit containing goat anti-mouse IgG1, IgG2a, IgG2b, IgG3, and IgM (Sigma).

With “NANPNANPNANPSGSGQQKFQFQFEQQ [(NANP)3-Q11]”, in [1], the “Antibody production in T cell receptor KO mice” value is recorded as “no antibody production”. Besides, the “Spike in antibody levels after the boost” value in data set [2] (100 nmol) was “no spike in antibody levels”. Also, the “Time for which antibodies were detectable” value in [2] is “up to 28 wks”.
For the molecule “H2N-FKFEFKFEGGAAYSIINFEKL-Am (H-FKFEFKFEGGAAYSIINFEKL-NH2; not fully specified (some residues)) [SIN-KFE8(L)]”, the “Memory CD8 T cell response: antigen-specific T cells in lymph nodes, compared with the enantiomer” value in data set [3] (boost day 28, evaluated day 32) is on record as “significantly higher numbers of antigen-specific T cells”. The “Effector and memory CD8+ T cell responses / tetramer+ CD8 T cells” value in [3] (mouse, in vivo) was “robust effector and memory CD8+ T cell responses; also recorded: higher numbers of tetramer+CD8 T cells”.
“H2N-^DF^DK^DF^DE^DF^DK^DF^DEGGAAYSIINFEKL-Am [SIN-KFE8(D)]”: the “Effector CD8 T cell response: antigen-specific T cells in draining lymph nodes, compared with the enantiomer” value in data set [3] (footpad, boost day 5, evaluated day 8) was “significantly lower numbers of antigen-specific T cells”.
As to “H2N-ISQAVHAAHAEINEAGRSGSG^DF^DK^DF^DE^DF^DK^DF^DE-Am (H-ISQAVHAAHAEINEAGRSGSG[dF][dK][dF][dE][dF][dK][dF][dE]-NH2; SMILES CC[C@H](C)[C@H](N)C(=O)N[C@@H](CO)C(=O)N[C@@H](CCC(N)=O)C(=O)N[C@@H](C)C(=O)N[C@H](C(=O)N[C@@H](Cc1c[nH]cn1)C(=O)N[C@@H](C)C(=O)N[C@@H](C)C(=O)N[C@@H](Cc1c[nH]cn1)C(=O)N[C@@H](C)C(=O)N[C@@H](CCC(=O)O)C(=O)N[C@H](C(=O)N[C@@H](CC(N)=O)C(=O)N[C@@H](CCC(=O)O)C(=O)N[C@@H](C)C(=O)NCC(=O)N[C@@H](CCCNC(=N)N)C(=O)N[C@@H](CO)C(=O)NCC(=O)N[C@@H](CO)C(=O)NCC(=O)N[C@H](Cc1ccccc1)C(=O)N[C@H](CCCCN)C(=O)N[C@H](Cc1ccccc1)C(=O)N[C@H](CCC(=O)O)C(=O)N[C@H](Cc1ccccc1)C(=O)N[C@H](CCCCN)C(=O)N[C@H](Cc1ccccc1)C(=O)N[C@H](CCC(=O)O)C(N)=O)[C@@H](C)CC)C(C)C) [OVA-KFE8(D)]”, the “Antibody isotype levels compared to OVA-KFE8(L)” value in data set [4] (IgG2a, IgG2b, IgG3, IgM, IgA) is “Significantly higher levels of all antibody isotypes”. Also, in data set [4] (mouse, in vivo), the “Anti-OVA antibodies on plates coated with free OVA peptide compared to OVA-KFE8(L)” value was “higher levels of anti-OVA antibodies; also recorded: Significantly higher levels of antibodies”; the “IgG2a, IgM, and IgA production compared to OVA in ISA-720” value is listed as “significantly higher”; the “OVA-specific antibodies compared to OVA-KFE8(L), SGSG-KFE8 control wells subtracted” value is on record as “significantly higher levels of OVA-specific antibodies”. In addition, in data set [4], the Dominant antibody isotype result is “IgG1” and the “Total IgG antibody response” value is listed as “robust antibody responses”. The “Antibody levels compared to OVA-KFE8(L) nanofibers or OVA in ISA-720” value in data set [4] (series of serum dilutions) is on record as “Significantly higher levels of total IgG”. In [4] (week 2 up to the boost at week 4), the “Antibody levels pre-boost compared to OVA-KFE8(L)” value is listed as “significantly higher levels of antibodies”. Also, in [5], the “Difference in IFN-γ and IL-2 production / CD4+ T cell activation between the enantiomers” value is listed as “no significant differences”; the “IFN-γ production by OT-II cells compared to wells coated with PBS or bare nanofibers” value is reported as “significantly higher levels”; the “IL-2 production by OT-II cells compared to wells coated with PBS or bare nanofibers” value is recorded as “significantly higher levels”.
On to “H2N-ISQAVHAAHAEINEAGRSGSGFKFEFKFE-Am (H-ISQAVHAAHAEINEAGRSGSGFKFEFKFE-NH2; not fully specified (some residues)) [OVA-KFE8(L)]”, for which the Dominant antibody isotype result in [4] is given as “IgG1”. In addition, in data set [6], the “Transferred OT-II cells that had proliferated (shift in CFSE intensity)” value is recorded as “only background levels of proliferation”. Also, in [5], the “IFN-γ production by OT-II cells compared to wells coated with PBS or bare nanofibers” value is “significantly higher levels” and the “IL-2 production by OT-II cells compared to wells coated with PBS or bare nanofibers” value is reported as “significantly higher levels”.
Turning to “ISQAVHAAHAEINEAGRSGSGQQKFQFQFEQQ-NH2 (C-terminus assumed) [O-Q11]”, in data set [7], the Endotoxin was 0.08-0.28 EU/mL. For the same molecule, in [8], the “Localization of peptide assemblies” value is “localized to the draining lymph nodes”, the “Persistence of peptide assemblies in lymph nodes” value is given as not above 6 wk and the “Time at which peptide assemblies were found at the cortex of the lymph nodes” value was not above 1 wk.
As to “H-ISQAVHAAHAEINEAGR-OH [OVA, H2N-ISQAVHAAHAEINEAGR-OH, reference compound]”, in data set [4], the “Total IgG antibody response” value is recorded as “did not raise any detectable IgG”. Further, the “Total IgG response” value in data set [9] (peptide in PBS without added adjuvant, s.c., boost day 28, serum 7 days after boost) is listed as “did not raise detectable IgG; also recorded: did not elicit a response”. The IgG titer in [9] (without adjuvant, baseline level of detection) is on record as 10^2.
As to `CC(=O)N[C@H](Cc1ccccc1)C(=O)N[C@H](CCCCN)C(=O)N[C@H](Cc1ccccc1)C(=O)N[C@H](CCC(=O)O)C(=O)N[C@H](Cc1ccccc1)C(=O)N[C@H](CCCCN)C(=O)N[C@H](Cc1ccccc1)C(=O)N[C@H](CCC(=O)O)C(N)=O` [KFE8(D), Ac-^DF^DK^DF^DE^DF^DK^DF^DE-Am], the “Cytokine (IFN-γ, IL-2) production by OT-II cells” value in [5] is reported as “no cytokine production”.
Same read-out and setting: to `CC(=O)N[C@@H](Cc1ccccc1)C(=O)N[C@@H](CCCCN)C(=O)N[C@@H](Cc1ccccc1)C(=O)N[C@@H](CCC(=O)O)C(=O)N[C@@H](Cc1ccccc1)C(=O)N[C@@H](CCCCN)C(=O)N[C@@H](Cc1ccccc1)C(=O)N[C@@H](CCC(=O)O)C(N)=O` [KFE8(L), Ac-FKFEFKFE-Am] belongs “no cytokine production”.
